According to paper PMC5391125, “Fatty acid DSF binds and allosterically activates histidine kinase RpfC of phytopathogenic bacterium Xanthomonas campestris pv. campestris to regulate quorum-sensing and virulence” (PLoS Pathogens, 2017):

Experiments:
[1] = biological target: T1, RpfC^R15A liposome (Xanthomonas campestris pv. campestris, UniProt P0C0F7, R15A); experiment: MST binding, RpfC^R15A liposome
T1 construct: His6 (C); made in house; host or cells: E. coli BL21(DE3), pET30a
Procedure: (§1) Binding reactions of RpfC to DSF was measured by microscale thermophoresis in a Monolith NT.Label Free (Nano Temper Technologies GMBH, Germany) instrument which detects changes in size, charge and conformation induced by binding. RpfC liposomes were collected with centrifugation of 200,000 g for 40 min and resuspended in MST buffer (50 mM Tris-HCl pH 7.8, 150 mM NaCl, 10 mM MgCl2, 0.05% Tween-20) to an approximate concentration of 0.1 μM. A range of concentration of DSF (range from 0.06 μM to 2 mM) in assay buffer (50 mM Tris-HCl pH 7.8, 150 mM NaCl, 10 mM MgCl2, 0.05% Tween-20, 5% methanol) was incubated with RpfC liposomes (1:1, v/v) for 10 minutes. The sample was loaded into the NT.Label Free standard capillaries and measured with 20% LED power and 40% MST power. Purified sensor protein was dissolved in reaction buffer (50 mM Tris-HCl pH 8.5, 150 mM NaCl, 0.1% Tween-20) to a final concentration as 8 μM. Dilute DSF from 0.0122 μM to 25 μM in buffer (50 mM Tris-HCl pH 8.5, 150 mM NaCl, 0.25‰ methanol). Different concentrations of DSF and sensor protein (1:1, v/v) were mixed and loaded into NT.Label Free standard capillaries. […]
(§2) Supplementary file ppat.1006304.s004.pdf: S4 Fig Substitution of essential amino acid impact DSF-RpfC interaction. Microscale thermophoresis (MST) was used to quantify the binding affinity between DSF and RpfC derivates. […]

[2] = biological target: T2, RpfC^Q22A liposome (Xanthomonas campestris pv. campestris, UniProt P0C0F7, Q22A); experiment: Autokinase assay, RpfC^Q22A liposome; format: biochemical; conditions: 0.75 μM DSF, 5 min
T2 construct: His6 (C); made in house; host or cells: E. coli BL21(DE3), pET30a
Procedure: (§3) in vitro phosphorylation assay was conducted as described in our previous study. For autophosphoylation, RpfC liposomes or IMV were incubated with 100 μM ATP containing 10 μCi [γ-^32P]ATP (PerkinElmer, USA) in autophosphorylation buffer (50 mM Tris-HCl, pH 7.8, 2 mM DTT, 25 mM NaCl, 25 mM KCl, 5 mM MgCl2) for indicated time (28°C). If necessary, DSF was added into the mixture 20 min before addition of ATP. The reaction was stopped with 6 × SDS-PAGE loading buffer. The phosphorylated proteins were separated by 12% SDS-PAGE. After SDS-PAGE electrophoresis, gels were separated from back glass plate and placed in a Ziploc bag and exposed to a phosphor screen for 1 hour. The screen was scanned with a PhosphorImage system (Amersham Biosciences, USA) at […]. If necessary, signal intensity was measured by Quantity One software (Bio-Rad).

[3] = biological target: T3, RpfC^FL liposome (Xanthomonas campestris pv. campestris, UniProt P0C0F7); experiment: Thermal shift assay (differential scanning fluorimetry), RpfC^FL liposome; format: binding
T3 construct: His6 (C); made in house; host or cells: E. coli BL21(DE3), pET30a
Procedure: DSF was mixed with purified proteins or liposomes of RpfC to a final concentration of 0 μM, 5 μM or 10 μM respectively in the reaction buffer (50 mM Tris-HCl pH 7.8, 25 mM NaCl, 100 mM KCl). The protein concentration was 0.5–1 μg/μl. The TSA was performed by a Prometheus NT.48 nanoDSF device with a temperature gradient of 20–95°C, 1°C /min. Unfolding transition points were determined according to the changes of intrinsic tryptophan fluorescence at 330 nm, 350 nm. The ratio of fluorescence and the melting temperature (Tm) were calculated by the NT Melting Control software (NanoTemper Technologies).

[4] = biological target: T4, soluble RpfC protein without input region (RpfC^Δinput) (Xanthomonas campestris pv. campestris, UniProt P0C0F7); experiment: MST binding, soluble RpfC^Δinput; conditions: RpfC^Δinput 0.1 μM
T4 construct: a truncated, soluble RpfC protein (RpfC^Δinput) lacking the N-terminal input region (including sensor and TM domains) was obtained and purified; His6 (C); made in house; host or cells: E. coli BL21(DE3), pET30a

[5] = biological target: GST (Schistosoma japonicum, UniProt P08515); experiment: Circular dichroism of GST; conditions: GST 6 μM
[6] = biological target: T5, RpfC sensor peptide (Xanthomonas campestris pv. campestris, UniProt P0C0F7); experiment: MST binding, purified RpfC sensor peptide; conditions: sensor peptide with GST tag removed, read-out: dissociation constant (Kd)
T5 construct: GST (N, cleaved yes); made in house; host or cells: E. coli BL21 (DE3), pGEX6P-1
Procedure: RpfC sensor fused with a GST tag was obtained and purified according to the GST Gene Fusion System Handbook (Amersham Biosciences) with GST Resin (TRANS). In order to acquire sensor peptide with GST tag cleaved off, on-column cleavage procedure was conducted. In brief, lysate of recombinant E.coli BL21 (DE3) strain was mixed with pre-equilibrated GST Resin with PBS buffer for ten minutes before loading into column. The column was washed by PBS buffer and resuspened with PreScission buffer (50 mM Tris-HCl, pH 8.5, 150 mM NaCl). Following the injection of 2 units PreScission Protease (GenScript), the column was sealed and placed on a rotator at 4°C. After 10 h of digestion, the flow fractions were collected, which contains preliminary sensor peptide with the GST tag being moved. If necessary, the sensor peptide was purified again by the GST Resin to get rid of uncleaved sensor-GST fusion protein. […]
Binding reactions of RpfC to DSF was measured by microscale thermophoresis in a Monolith NT.Label Free (Nano Temper Technologies GMBH, Germany) instrument which detects changes in size, charge and conformation induced by binding. […] The sample was loaded into the NT.Label Free standard capillaries and measured with 20% LED power and 40% MST power. […]

[7] = biological target: T6, RpfC^FL IMV (Xanthomonas campestris pv. campestris, UniProt P0C0F7); experiment: In vitro autokinase assay, RpfC^FL inverted membrane vesicles; format: biochemical; conditions: 10 μM DSF
T6 construct: His6 (C); made in house; host or cells: E. coli BL21(DE3), pET30a
Procedure: as §3

[8] = biological target: T7, RpfC^FL (Xanthomonas campestris pv. campestris, UniProt P0C0F7); experiment: Dose-response of DSF on RpfC autokinase activity; format: biochemical
T7 construct: His6 (C); made in house; host or cells: E. coli BL21(DE3), pET30a
Procedure: as §3

[9] = biological target: T8, RpfC^S3A liposome (Xanthomonas campestris pv. campestris, UniProt P0C0F7, S3A); experiment: MST binding, RpfC^S3A liposome
T8 construct: His6 (C); made in house; host or cells: E. coli BL21(DE3), pET30a
Procedure: as §1, §2

[10] = biological target: T3, RpfC^FL liposome; experiment: Microscale thermophoresis (MST) binding, RpfC^FL liposome; conditions: RpfC liposome 0.1 μM, read-out: dissociation constant (Kd)
Procedure: Binding reactions of RpfC to DSF was measured by microscale thermophoresis in a Monolith NT.Label Free (Nano Temper Technologies GMBH, Germany) instrument which detects changes in size, charge and conformation induced by binding. RpfC liposomes were collected with centrifugation of 200,000 g for 40 min and resuspended in MST buffer (50 mM Tris-HCl pH 7.8, 150 mM NaCl, 10 mM MgCl2, 0.05% Tween-20) to an approximate concentration of 0.1 μM. A range of concentration of DSF (range from 0.06 μM to 2 mM) in assay buffer (50 mM Tris-HCl pH 7.8, 150 mM NaCl, 10 mM MgCl2, 0.05% Tween-20, 5% methanol) was incubated with RpfC liposomes (1:1, v/v) for 10 minutes. The sample was loaded into the NT.Label Free standard capillaries and measured with 20% LED power and 40% MST power. Purified sensor protein was dissolved in reaction buffer (50 mM Tris-HCl pH 8.5, 150 mM NaCl, 0.1% Tween-20) to a final concentration as 8 μM. Dilute DSF from 0.0122 μM to 25 μM in buffer (50 mM Tris-HCl pH 8.5, 150 mM NaCl, 0.25‰ methanol). Different concentrations of DSF and sensor protein (1:1, v/v) were mixed and loaded into NT.Label Free standard capillaries. The label free MST assay was performed with 20% LED power and 40% MST power. KD Fit function of the Nano Temper Analysis Software Version 1.5.41 was used to fit curve and calculate the value of dissociation constant (Kd).

[11] = biological target: T9, RpfC^E19A liposome (Xanthomonas campestris pv. campestris, UniProt P0C0F7, E19A); experiment: MST binding, RpfC^E19A liposome
T9 construct: His6 (C); made in house; host or cells: E. coli BL21(DE3), pET30a
Procedure: as §1, §2

Compound: CC(C)CCCCCCC/C=C\C(=O)O [DSF, cis-11-methyl-dodecenoic acid]
- binding between DSF and RpfC liposome [1]: completely eliminated the binding
- RpfC-P levels under DSF treatment [2]: significant decrease
- melting temperature (Tm) ([3]; 5 μM DSF vs. 10 μM RpfC): 64.27 °C
- melting temperature (Tm) ([3]; 10 μM DSF vs. 10 μM RpfC): 66.27 °C
- binding to DSF [4]: didn’t bind
- impact on secondary structure [5]: did not have recognizable impact
- Kd [6]: 140 ± 40 nM
- level of RpfC^FL-P phosphorylation compared with the control [7]: approximately doubled
- time of increase in phosphorylation level post DSF addition [7]: 30 s
- DSF concentration at which RpfC^FL-P levels tapered off (saturation) [8]: ~20 µM
- DSF concentration sufficient to elicit a detectable increase in RpfC^FL-P level [8]: 0.5 µM
- Kd ([9]; MST): 613 ± 340 nM
- increase of binding affinity compared with WT RpfC ([9]; S3A replacement): approximately 20%
- Kd [10]: 820 ± 120 nM
- binding between DSF and RpfC liposome [11]: completely eliminated the binding
